Holding throughout (assay type): in vivo
Experiment [1] concerns Eggs of Tetranychus Cinnabarinus. Put plainly: Activity assay of eggs of Tetranychus cinnabarinus (spray method, ovicidal). The following applies: Tetranychus cinnabarinus; concentration 5 mg/L; spray; non-incubated eggs counted as dead; read-out: ovicidal activity. As to the method: According to the solubility of the test compound, the crude drug was dissolved in N N-dimethylformamide, and then prepared into a test solution of the desired concentration with 1‰ Tween 80 aqueous solution. The content of N. N-dimethylformamide in the solution should not exceed 10%.
Spray method. The broad bean leaves with petioles were cut and inserted into a bottle with water. A certain number of female mites were placed, 24h later, adult mites were removed, and spray treatment was performed in 24 h. The experiment was repeated three times, and a blank control was set, and placed to an observation room (26±2° C., humidity 70%˜80%, 16h light per day) for culture. When the blank control group was incubated, the results were investigated. The non-incubated ones were used as death for investigation.

The test system of experiment [2] is adult Tetranychus cinnabarinus. Briefly: Activity assay of adult Tetranychus cinnabarinus (whole-plant spray on bean seedlings). The following applies: concentration 2.5 mg/L, 48 h, read-out: adult mite-killing activity. The protocol: According to the solubility of the test compound, the crude drug was dissolved in N, N-dimethlfornamide, and then prepared into a test solution of the desired concentration with 1‰ Tween 80 aqueous solution. The content of N,N-dimethylformamide in the solution should not exceed 10%.
Two euphylla bean seedlings were taken, after inoculated with adult Tetranychus cinnabarinus and the base number was investigated, whole plants were sprayed with a hand-held sprayer. The experiment was repeated three times for each treatment, after treatment, placed in a standard observation room after treatment, to investigate the survival number of mites in 48 hand calculate the death rate.

Experiment [3] deals with Tetranychus cinnabarinus Nymphs. Briefly: Activity assay of Tetranychus cinnabarinus nymphs (spray on broad bean leaves). Conditions: 48 h, concentration 2.5 mg/L, read-out: nymph-killing activity. As to the method:
According to the solubility of the test compound, the crude drug was dissolved in N, N-dimethylformamide, and then prepared into a test solution of the desired concentration with 1‰ Tween 80 aqueous solution. The content of N,N-dimethylformamide in the solution should not exceed 10%.
The broad bean leaves with petioles were cut and inserted into a small bottle with water. A certain number of brightly colored, active female adult mites were placed, 24h later, adult mites were removed, and leaves with insufficient eggs were removed. When eggs were hatched and grew into nymphs, spray treatment was performed. The experiment was repeated three times, and a blank control was set, and placed to an observation room (26±2° C., humidity 70%˜80%, 16h light per day) for culture. 48 h later, the results were investigated. The nymphs were gently touched during investigation, and if no response, they were regarded as deaths.

`CCn1nc(C)c(C)c1/C(OCOC(=O)C1CCCCC1)=C(\C#N)c1ccc(C(C)(C)C)cc1` [Compound 386]: in experiment [1], the pest or weed control at 5 µg/mL was at least 90%. Also, the pest or weed control at 2.5 µg/mL in experiment [2] was at least 90%; in experiment [3] it was at least 95%.

`CCCC(=O)OC(C)O/C(=C(/C#N)c1ccc(C(C)(C)C)cc1)c1cc(C)nn1C` (stereo not drawn) [Compound 28]: the pest or weed control at 5 µg/mL in experiment [1] was at least 90%. The pest or weed control at 2.5 µg/mL is at least 90% in experiment [2] and at least 95% in experiment [3].

`C=CC(=O)OCO/C(=C(/C#N)c1ccc(C(C)(C)C)cc1)c1c(Cl)c(C)nn1C` [Compound 92]: the pest or weed control at 5 µg/mL in experiment [1] is at least 90%. Also, the values for the pest or weed control at 2.5 µg/mL in experiment [2] and in experiment [3] were at least 90% and at least 95%, respectively.

`Cc1cc(/C(OCOC(=O)C2CC2)=C(\C#N)c2ccc(C(C)(C)C)cc2)n(C)n1` [Compound 9]: the pest or weed control at 5 µg/mL in experiment [1] was at least 90%. For the same molecule, the pest or weed control at 2.5 µg/mL in experiment [2] is at least 90%; in experiment [3] it was at least 95%.

`COCC(=O)OCO/C(=C(/C#N)c1ccc(C(C)(C)C)cc1)c1cc(C)nn1C` [Compound 8]: the pest or weed control at 5 µg/mL in experiment [1] is at least 90%. The pest or weed control at 2.5 µg/mL in experiment [2] is at least 90%; in experiment [3], at least 95%.

Turning to `Cc1nn(C)c(/C(OC(C)OC(=O)CC(C)C)=C(\C#N)c2ccc(C(C)(C)C)cc2)c1Cl` (stereo not drawn) [Compound 107], the pest or weed control at 5 µg/mL in experiment [1] was at least 90%. Further, the pest or weed control at 2.5 µg/mL in experiment [2] is at least 90%; in experiment [3] it was at least 95%.

With `CCn1nc(C)c(C)c1/C(OCOC(=O)CC(C)C)=C(\C#N)c1ccc(C(C)(C)C)cc1` [Compound 382], the pest or weed control at 5 µg/mL in experiment [1] was at least 90%. In addition, the pest or weed control at 2.5 µg/mL in experiment [2] is at least 90%; in experiment [3], at least 95%.

Turning to `CCn1nc(C)c(C)c1/C(OC(C)OC(=O)C1CCCCC1)=C(\C#N)c1ccc(C(C)(C)C)cc1` (stereo not drawn) [Compound 411], the pest or weed control at 5 µg/mL in experiment [1] is at least 90%. Also, the pest or weed control at 2.5 µg/mL in experiment [2] is at least 90%; in experiment [3], at least 95%.

Turning to `COC(=O)CSC(=O)OC(C)O/C(=C(/C#N)c1ccc(C(C)(C)C)cc1)c1cc(C)nn1C` (stereo not drawn) [Compound 513], the pest or weed control at 5 µg/mL in experiment [1] was at least 90%. In addition, the pest or weed control at 2.5 µg/mL in experiment [2] is at least 90%; in experiment [3], at least 95%.

In the case of `COC(=O)CSC(=O)OCO/C(=C(/C#N)c1ccc(C(C)(C)C)cc1)c1cc(C)nn1C` [Compound 481], in experiment [1], the pest or weed control at 5 µg/mL was at least 90%. The figures for the pest or weed control at 2.5 µg/mL in experiment [2] and in experiment [3] were at least 90% and at least 95%, respectively.

As for `CCn1nc(C)cc1/C(OCOC(=O)OCCSC)=C(\C#N)c1ccc(C(C)(C)C)cc1` [Compound 567], in experiment [1], the pest or weed control at 5 µg/mL was at least 90%. In addition, the pest or weed control at 2.5 µg/mL in experiment [2] is at least 90%; in experiment [3] it was at least 95%.

`CSCC(=O)OC(C)O/C(=C(/C#N)c1ccc(C(C)(C)C)cc1)c1cc(C)nn1C` (stereo not drawn) [Compound 35]: the pest or weed control at 5 µg/mL in experiment [1] is at least 90%. The pest or weed control at 2.5 µg/mL in experiment [2] was at least 90%; in experiment [3], at least 95%.

Regarding `C=CC(=O)OCO/C(=C(/C#N)c1ccc(C(C)(C)C)cc1)c1c(Cl)c(C)nn1CC` [Compound 317], the pest or weed control at 5 µg/mL in experiment [1] is at least 90%. The pest or weed control at 2.5 µg/mL in experiment [2] is at least 90%; in experiment [3] it was at least 95%.

The record behind these values is patent US11104648B2, “Pyrazole derivative” (Zhejiang Research Institute of Chemical Industry Co., Ltd., priority 2018, dated 2021).
